What all share (assay): NCI anticancer screen, dose series, 48 h
The test system of test [1] is BT-549 breast.
Test [2] deals with SNB-19 CNS.
Test [3] has as its system NCI-H460 lung.
The subject of test [4] is LOX IMVI melanoma.
The test system of test [5] is DU-145 prostate.
In test [6] the test system is T-47D breast.

Here are results for 22 compounds from PubChem BioAssay (NCI).

Several values for one entry are separate records, joined by “and”; a condition that tells them apart may be missing. Identical values can stand only once.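 Protocol summary: plate cells (96-well), add compound at 5 concentrations, incubate 48 h, interpolate endpoints linearly. GI50 is the concentration that inhibits growth by half. TGI: total growth inhibition.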

For `C(=Nc1ccccc1)C1CCCC[N-]1.C(=Nc1ccccc1)C1CCCC[N-]1.[Cu+2].[O-][Cl+3]([O-])([O-])O` (stereo not drawn), the GI50 was 18.5 µM in test [1]; 9.94 µM in test [2]; 11.2 µM in test [3]; 0.0132 µM in test [4]; 8.48 µM in test [5]; 21.6 µM in test [6]. Moreover, the TGI in test [1] was 55.8 µM; in test [2], 38.4 µM; in test [3], over 58.2 µM; in test [4], 11.8 µM; in test [5], 36.9 µM; in test [6], over 100 µM.

As for `CN1C(=O)c2c(ccc3c2OCO3)C2C(O)Cc3cc4c(cc3C21)OCO4` (stereo not drawn), the TGI in test [1] was over 100 µM; in test [2], over 100 µM; in test [3], over 100 µM; in test [4], over 100 µM; in test [5] it was 43.1 µM.

As for `COc1ccc2c(c1)C(=O)c1c-2n(CCCN)c(=O)c2ccccc12`, the GI50 in test [1] is 0.82 µM; in test [2], under 0.0198 µM; in test [3] it was under 0.01 µM; in test [4], 0.0102 µM; in test [5] it was 0.0179 µM; in test [6] it was under 0.0218 µM. Moreover, the TGI worked out at 2.63 µM in test [1]; 0.105 µM in test [2]; 0.0402 µM in test [3]; 0.0786 µM in test [4]; 0.293 µM in test [5]; 0.109 µM in test [6].

With `C=C(Cn1c(=O)c2ccccc2c2ccccc21)c1ccc(C(=O)Nc2ccccc2N)cc1`, the GI50 in test [1] is 14.8 µM; in test [2], 42.9 µM; in test [3], 21.3 µM; in test [4], 7.77 µM; in test [5], over 45.9 µM; in test [6], 3.86 µM. The TGI in test [1] was 97.7 µM; in test [2], over 100 µM; in test [3], over 100 µM; in test [4], over 100 µM; in test [5], over 100 µM; in test [6], over 69.3 µM.

Regarding `Cc1nc2ccc(CN(C)c3ccc(C(=O)N[C@@H](CCC(=O)O)C(=O)O)s3)cc2c(=O)[nH]1`, the TGI in test [1], in test [2], in test [3], in test [4], in test [5] and in test [6] was over 100 µM each time.

As to `O=C(O)CSCc1cccc2ccccc12`, the TGI in test [1], in test [2], in test [3], in test [4], in test [5] and in test [6] was over 100 µM in each case.

`O=P([O-])(O)OP(=O)([O-])O.[NH-][C@H]1CCCC[C@@H]1[NH-].[OH-].[OH-].[Pt+4]`: the GI50 in test [1] was 24.3 µM; in test [2] it was 21.7 µM; in test [3] it was 34.5 µM; in test [4], 33.2 µM; in test [5], 33.3 µM; in test [6] it was 25 µM. The TGI was 47.9 µM in test [1]; 49.7 µM in test [2]; over 100 µM in test [3]; over 100 µM in test [4]; over 100 µM in test [5]; 61.4 µM in test [6].

In the case of `CC(C)[C@](O)(c1ccc2cc(OC(F)F)c(OC(F)F)cc2c1)c1cn[nH]n1`, the GI50 is 15.6 µM and 13.3 µM in test [1]; 22 µM and 15.7 µM in test [2]; 18.9 µM and 17.7 µM in test [3]; 15.7 µM and 14.8 µM in test [4]; 19.1 µM and 16.4 µM in test [5]; 3.73 µM and 15.5 µM in test [6]. In addition, the TGI in test [1] was 31.1 µM and 28.5 µM; in test [2], 51 µM and 41.8 µM; in test [3], 34.9 µM and 34.3 µM; in test [4], 29.1 µM and 28.9 µM; in test [5], 45.6 µM and 32 µM; in test [6], 53.4 µM and 71.1 µM.

On to `CC(C)=CCN=C(N)N`, for which the TGI in test [1], in test [2], in test [3], in test [4], in test [5] and in test [6] was over 100 µM in each case.

Turning to `COc1cc(/C(Cl)=C/C=C/C(=O)c2c(C)[n+]([O-])c3ccc(Cl)cc3[n+]2[O-])cc(OC)c1OC`, the GI50 in test [1] was 6.47 µM; in test [2] it was 15 µM; in test [3] it was 11.5 µM; in test [4], 1.77 µM; in test [5], 11.8 µM; in test [6] it was 10.7 µM. In addition, the TGI in test [1] was 39.4 µM; in test [2] it was over 50 µM; in test [3] it was over 50 µM; in test [4], 7.54 µM; in test [5], over 50 µM; in test [6] it was over 50 µM.

Take `C=C1C(=O)O[C@H]2[C@H]1CC/C(CNC(=O)/C=C/c1ccc(Br)cc1)=C\CC[C@@]1(C)O[C@@H]21`: the GI50 is 1.14 µM in test [1]; 1.61 µM in test [2]; 1.63 µM in test [3]; 0.594 µM in test [4]; 0.743 µM in test [5]; 1.74 µM in test [6]. The TGI in test [1] was 2.95 µM; in test [2], 4.6 µM; in test [3], 3.3 µM; in test [4], 1.86 µM; in test [5], 2.02 µM; in test [6], 4.73 µM.

As for `COc1cccc([C@H]2CC(=O)c3cc4c(cc3N2)OCO4)c1`, the TGI is 1.81 µM in test [2], over 100 µM in test [4], 13.8 µM in test [5] and over 100 µM in test [6]. In addition, the GI50 was 0.273 µM in test [4] and 0.067 µM in test [5].

Take `Cc1ccc(NCCCN2CCN(CCCNc3ccc(C)c4sc5ccccc5c(=O)c34)CC2)c2c(=O)c3ccccc3sc12`: the TGI in test [2], in test [3], in test [4], in test [5] and in test [6] was over 100 µM each time.

In the case of `NS(=O)(=O)c1ccc(NC(=O)c2ccc(NC3=C(Cl)C(=O)N(Cc4ccccc4)C3=O)cc2)cc1`, the GI50 in test [2] was over 100 µM; in test [3] it was 5.07 µM; in test [4] it was 3.35 µM; in test [5], 17 µM; in test [6] it was 18.4 µM. The TGI in test [2] was over 100 µM; in test [3], over 100 µM; in test [4] it was 39 µM; in test [5] it was 30.6 µM; in test [6] it was over 100 µM.

For the compound `CC(C)(C)OC(=O)NCCNC1=CC(=O)c2nc3ccccc3c3ccnc1c23`, the GI50 is 20.5 µM in test [1]; 22.7 µM in test [2]; 15.2 µM in test [3]; 22.7 µM in test [5]; 25.8 µM in test [6]. For the same compound, the TGI in test [1] is 51.7 µM; in test [2], 83.7 µM; in test [3], 43.1 µM; in test [5] it was 80.9 µM; in test [6], over 100 µM.

For `COc1cc2c(/C=N\N=C(N)N)c(Cl)[nH]c2cc1C`, the GI50 in test [1] was 13.2 µM; in test [2], 12.7 µM; in test [3], 15 µM; in test [4] it was 11.4 µM; in test [6] it was 2.96 µM. The TGI in test [1] was 27.8 µM; in test [2], 29.2 µM; in test [3], over 100 µM; in test [4], 25.3 µM; in test [6], 9.12 µM.

With `O=C(c1ccc2ccccc2c1O)N1CCCCC1`, the TGI in test [2], in test [3], in test [4], in test [5] and in test [6] was over 100 µM throughout.

Take `COc1cc(C(=O)OCCCCCCCCCCC[P+](c2ccccc2)(c2ccccc2)c2ccccc2)ccc1O`: the GI50 in test [1] is 0.271 µM; in test [5], 0.46 µM. Besides, the TGI in test [1] amounted to 1.26 µM; in test [5], 1.58 µM.

In the case of `Nc1ncnc2c1ncn2C1OC(COP(=O)(O)CP(=O)(O)O)C(O)C1O` (stereo not drawn), the TGI in test [1], in test [2], in test [4], in test [5] and in test [6] was over 100 µM in each case.

For `CN1CCc2cc3c(cc2C1O)OCO3` (stereo not drawn), the GI50 in test [2] was 34.6 µM and > 100 µM; in test [4] it was 17.4 µM and > 100 µM; in test [5] it was 16.7 µM and > 100 µM. In addition, the TGI in test [2] was over 100 µM; in test [4], 40.3 µM and > 100 µM; in test [5] it was 30.8 µM and > 100 µM.

In the case of `Cc1[nH]ncc1-c1cc2nc(C3CC4CCN3CC4)[nH]c(=O)c2s1` (stereo not drawn), the GI50 in test [1] was 2.59 µM; in test [2] it was 4.78 µM; in test [3] it was 2.44 µM; in test [4] it was 1.46 µM; in test [5] it was 3 µM. Moreover, the TGI was 29.6 µM in test [1]; over 100 µM in test [2]; over 100 µM in test [3]; 21.1 µM in test [4]; over 100 µM in test [5].

With `COc1cc(-c2nn3c(/C=C4/C(=O)Nc5ccccc54)c(-c4ccc(C)cc4)nc3s2)cc(OC)c1OC`, the GI50 in test [1] is 4.69 µM; in test [2] it was 7.89 µM; in test [3], 1.98 µM; in test [5], 2.55 µM; in test [6], 3.13 µM. Further, the TGI is 38.1 µM in test [1]; 34.2 µM in test [2]; over 100 µM in test [3]; over 100 µM in test [5]; over 100 µM in test [6].
